One block for each compound: values may come before it.
How the values were obtained:
[1] = test system: Staphylococcus aureus biofilm; test: Biofilm dispersion measurements (Staphylococcus aureus), Luciferase assay for ATP production; assay type: cell-based; settings: 500 μg/mL; preformed 7-day S. aureus biofilm; FIG. 1
Protocol: Biofilm was formed using Staphylococcus aureus in a 96-well plate format. Each well of the plate was seeded with 150 μL of bacterial culture and incubated for 24 hours to allow for biofilm growth. The medium in each well was changed every 24 hours for 5 days and every 12 hours for two additional days. On day 7, 135 μL of Tryptic Soy Broth (TSB) and 15 μL of C2DA, T2DA, or 2-CP were added to yield final concentrations of each test compound ranging from 0 to 1000 μg/mL. The plate was then incubated for one hour and the turbidity of each solution was determined at 540 nm. Bacterial growths were then aspirated from all wells and the plates were washed several times with water.
(§1) The relative percentage of attached cells as compared to non-treated controls was assessed using a Luciferase assay for ATP production.

[2] = test system: Staphylococcus aureus biofilm; test: Biofilm eradication with antibiotics, MBEC Biofilm Inoculator plate, turbidity at 540 nm (Example 3); assay type: cell-based; settings: 24 h
Protocol: Overnight cultures of Staphylococcus aureus were prepared by inoculating 2 mL of TSB followed by incubation overnight at 37° C. The following day, 1 mL of this stock was diluted in 10 mL of TSB. A total of 150 μL of the diluted stock was seeded into each well of a 96-well MBECTM Biofilm Inoculator plate, followed by incubation overnight to allow biofilm growth. All media and planktonic bacteria were then aspirated from each well thus allowing the biofilm to remain both on the bottom of each well and on the pegs on the top of the plate. […] The plates were incubated for 24 hours at 37° C. Following incubation, the pegs were removed and added to new plates containing 150 μL of sterile TSB in each well. Plates and pegs were then sonicated for 5 minutes to remove any viable bacteria attached to the pegs, followed by incubation for 24 hours. Turbidity was determined via absorbance at 540 nm to access bacterial growth in the presence of fixed concentration of antibiotics and varying concentrations of […] and 2-CP. In this assay, the live bacteria that remained attached to the pegs grew overnight and increased turbidity.

[3] = test system: Mouse fibroblast cells (NIH3T3); test: Cytocompatibility, CellTiter Glow cell viability; assay type: cell-based
Protocol: Mouse fibroblast cells (NIH3T3) were seeded (1×10^4 cells/cm^2) in 24-well plates in Dulbecco's Modified Eagle's Medium (DMEM) supplemented with 10% fetal bovine serum and 100 μg/mL Normocin for 24 hours at 37° C. and 5% CO2. Concentrations of C2DA, T2DA, and 2-CP ranging from 0 to 1000 μg/mL were added to various wells. The plate was incubated for 24 hours and cell viability was measured using CellTiter Glow.

[4] = test system: Pseudomonas aeruginosa (ATCC 27317) biofilm; test: Biofilm dispersion measurements (Pseudomonas aeruginosa), Luciferase assay for ATP production; assay type: cell-based; settings: 125 or 250 μg/mL, 24 h; FIG. 7
Protocol: Biofilm was formed using Pseudomonas aeruginosa (ATCC 27317) in a 96-well plate format. Each well of the plate was seeded with 150 μL of bacterial culture and incubated for 24 hours. […] The plate was then incubated for 24 hours and the medium was aspirated and the plate washed several times.
as §1

S. aureus (UAMS-1) = test: Synergy checkerboard assay, biofilm inhibition (S. aureus); assay type: cell-based; settings: for MIC for antibiotic (combined): combined with 2-CP
Protocol: (§2) Synergy assays were performed to determine the effects of 2-CP when used in combination with various antimicrobials against gram positive S. aureus and gram negative P. aeruginosa. […] Final antibiotic concentrations varied based on their respective minimum inhibitory concentration for each organism and are given in Table 1. […] Inhibition was defined as a lack of visible growth after a 24 hr incubation period. The fractional inhibitory concentration index (FICI) was used to determine synergistic, additive, or antagonistic responses between the three antibiotics and 2-CP.

[5] = test system: P. aeruginosa (PA-ATCC 27317); test: Synergy checkerboard assay, biofilm inhibition (P. aeruginosa); assay type: cell-based; settings: for FICI / Interpretation: antibiotic combined with 2-CP; for MIC for antibiotic (combined): combined with 2-CP
Protocol: as §2

[6] = test system: Pseudomonas aeruginosa (ATCC 27317) biofilm; test: Biofilm eradication with antibiotics, MBEC plate (Example 8, P. aeruginosa); assay type: cell-based; settings: for FICI / Interpretation: P. aeruginosa eradication, antibiotic combined with 2-CP; for FICI: 4000 μg/mL used for 2-CP alone; for MEC for antibiotic (combined): combined with 2-CP
Protocol: (§3) Staphylococcus aureus (UAMS1) was grown overnight in TSB by incubation at 37° C. Pseudomonas aeruginosa (ATCC 27317) was grown overnight in a similar manner. S. aureus was diluted 1:10 in TSB and P. aeruginosa was diluted 1:50. Bacterial dilutions were added at a volume of 150 μL into each well of a 96-well MBEC′ Biofilm Inoculator plate, followed by overnight incubation to form the biofilm. The next day the medium from each well was carefully aspirated allowing the biofilm to remain both on the pegs of the top plate and the bottom of the wells. […] These plates were incubated at 37° C. for 24 hours. The next day the peg plates (top plate) were removed and added to new plates containing 150 μL of sterile TSB in each well. Plates were sonicated for 5 minutes to remove the viable bacteria attached to the peg surface and later incubated for 24 hours. Turbidity was measured by reading absorbance at 540 nm for bacterial growth in the presence of fixed concentrations of the antibiotics with varying concentrations of 2-CP and C2DA.

[7] = test system: Staphylococcus aureus (UAMS1) biofilm; test: Biofilm eradication with antibiotics, MBEC plate (Example 8, S. aureus); assay type: cell-based
Protocol: as §3

bacterial growth = settings: background statement; cited from earlier work
biofilm formation = settings: background statement; cited from earlier work

Structure (SMILES): CCCCCCCC1CC1C(=O)O (stereo not drawn) [2-CP, cis-2-heptylcyclopropanyl-1-carboxylic acid]
- ability to disperse biofilm (percentage of dispersed cells) [1]: increased ability to disperse biofilm as compared to its unsaturated fatty acid analog, C2DA
- turbidity (absorbance at 540 nm) of bacteria surviving on pegs ([2]; increasing concentration of 2-CP (0-500 μg/mL) with fixed […] tobramycin, FIG. 2): significantly lower
- biofilm eradication in combination with tetracycline ([2]; with tetracycline at […], fatty acid 0-500 μg/mL, FIG. 3): eradicated the biofilm at lower concentrations than C2DA
- cytocompatibility (percentage of viable cells vs PBS control) ([3]; NIH3T3, 0 to 1000 μg/mL, 24 h, FIG. 4): cytocompatibility equal to C2DA
- concentration exhibiting significant cytotoxicity toward mammalian cells ([3]; NIH3T3, 24 h): 1000 µg/mL
- ability to disperse biofilm (relative percentage of attached cells) [4]: increased ability to disperse biofilm as compared to T2DA and controls
- concentration inhibiting growth (S. aureus (UAMS-1); 2-CP alone): 4 mg/mL
- MIC (S. aureus (UAMS-1); Staphylococcus aureus, 24 hr, read-out: MIC for 2-CP (alone)): 4000 µg/mL
- MIC for 2-CP (combined) (S. aureus (UAMS-1); combined with Levofloxacin): 500 µg/mL
- MIC for 2-CP (combined) (S. aureus (UAMS-1); combined with Tetracycline): 62.5 µg/mL
- MIC for 2-CP (combined) (S. aureus (UAMS-1); combined with Tobramycin): 31 µg/mL
- concentration inhibiting growth ([5]; 2-CP alone): 4 mg/mL
- MIC ([5]; Pseudomonas aeruginosa, ATCC27317, 24 hr, read-out: MIC for 2-CP (alone)): 4000 µg/mL
- MIC for 2-CP (combined) ([5]; combined with Levofloxacin): 1000 µg/mL
- MIC for 2-CP (combined) ([5]; combined with Tetracycline): 1000 µg/mL
- MIC for 2-CP (combined) ([5]; combined with Tobramycin): 31 µg/mL
- MEC for 2-CP (alone) ([6]; P. aeruginosa biofilm eradication): >4000
- biofilm eradication by the substance alone ([6]; P. aeruginosa, alone): did not eradicate biofilm at any concentration tested
- MEC for 2-CP (combined) ([6]; P. aeruginosa, combined with Levofloxacin): 250
- MEC for 2-CP (combined) ([6]; P. aeruginosa, combined with Tobramycin): 250
- MEC for 2-CP (alone) ([7]; S. aureus biofilm eradication): >4000
- biofilm eradication by the substance alone ([7]; S. aureus, alone): did not eradicate biofilm at any concentration tested
- MEC for 2-CP (combined) ([7]; S. aureus, combined with Tetracycline): 125
- MEC for 2-CP (combined) ([7]; S. aureus, combined with Tobramycin): 31.25

Structure (SMILES): CCCCCCC/C=C\C(=O)O [C2DA, cis-2-decenoic acid]
- concentration that may inhibit bacterial growth (bacterial growth): 500 µg/mL
- concentration capable of inhibiting biofilm formation (biofilm formation): 125 µg/mL

Structure (SMILES): CN(C)[C@@H]1C(O)=C(C(N)=O)C(=O)[C@@]2(O)C(O)=C3C(=O)c4c(O)cccc4[C@@](C)(O)[C@H]3C[C@@H]12 [Tetracycline]
- MIC for antibiotic (alone) (S. aureus (UAMS-1)): 1 µg/mL
- MIC for antibiotic (combined) (S. aureus (UAMS-1)): 0.5 µg/mL
- MIC for antibiotic (alone) [5]: 32 µg/mL
- FICI [5]: 0.8
- MIC for antibiotic (combined) [5]: 16 µg/mL

The next lines start with results.

- MIC for antibiotic (alone) (S. aureus (UAMS-1)): 1 µg/mL
- MIC for antibiotic (combined) (S. aureus (UAMS-1)): 0.25 µg/mL
- MIC for antibiotic (alone) [5]: 1 µg/mL
- MIC for antibiotic (combined) [5]: 0.5 µg/mL
Structure (SMILES): C[C@H]1COc2c(N3CCN(C)CC3)c(F)cc3c(=O)c(C(=O)O)cn1c23 [Levofloxacin]
- FICI (S. aureus (UAMS-1); antibiotic combined with 2-CP): 0.4
- FICI [5]: 0.8
- MEC for antibiotic (alone) ([6]; P. aeruginosa): 0.3 µg/mL
- FICI [6]: 0.33
- MEC for antibiotic (combined) ([6]; P. aeruginosa): 0.08 µg/mL

- MIC for antibiotic (alone) (S. aureus (UAMS-1)): 4 µg/mL
- MIC for antibiotic (combined) (S. aureus (UAMS-1)): 2 µg/mL
- MIC for antibiotic (alone) [5]: 0.5 µg/mL
- MIC for antibiotic (combined) [5]: 0.25 µg/mL
Structure (SMILES): NC[C@H]1O[C@H](O[C@H]2[C@H](O)[C@@H](O[C@H]3O[C@H](CO)[C@@H](O)[C@H](N)[C@H]3O)[C@H](N)C[C@@H]2N)[C@H](N)C[C@@H]1O [Tobramycin]
- FICI (S. aureus (UAMS-1); antibiotic combined with 2-CP): 0.5
- Interpretation (S. aureus (UAMS-1); antibiotic combined with 2-CP): synergistic
- FICI [5]: 0.5
- Interpretation [5]: Syner-
- Interpretation ([5]; listed as tobramycin): synergistic
- MEC for antibiotic (alone) ([6]; P. aeruginosa): 0.5 µg/mL
- Interpretation [6]: Additive
- FICI [6]: 0.5625
- Interpretation ([6]; listed as tobramycin): additive
- MEC for antibiotic (combined) ([6]; P. aeruginosa): 0.25 µg/mL
- MEC for antibiotic (alone) ([7]; S. aureus): 2.5 µg/mL
- Interpretation ([7]; S. aureus eradication, antibiotic combined with 2-CP): Additive
- FICI ([7]; S. aureus eradication, antibiotic combined with 2-CP, 4000 μg/mL used for 2-CP alone): 0.51
- Interpretation ([7]; S. aureus eradication, antibiotic combined with 2-CP, listed as tobramycin): additive
- MEC for antibiotic (combined) ([7]; S. aureus, combined with 2-CP): 1.25 µg/mL

Source: patent US11311506B2, “Controlling biofilms with cyclopropanated fatty acids” (THE UNIVERSITY OF MEMPHIS RESEARCH FOUNDATION, priority 2018, dated 2022)
